We go through 30 molecules from patent US9949975B2, “Inhibitors of beta-secretase” (Vitae Pharmaceuticals, Inc., priority 2012, dated 2018).

The target of the data set is hERG channel (Homo sapiens (Human), UniProt Q12809). Description: hERG-Channel Assay (Assay 3), whole-cell patch clamp. The settings on record: HEK293 cells transfected with hERG, 35° C. Type of data set: cell-based. The text has this:
HEK (human embryonic kidney) 293 cells were stably transfected with hERG cDNA.
Cells were superfused with a bath solution containing (mM): NaCl (137), KCl (4.0), MgCl2 (1.0), CaCl2 (1.8), Glucose (10), HEPES (10), pH 7.4 with NaOH. Patch pipettes were made from borosilicate glass tubing using a horizontal puller and filled with pipette solution containing (mM): K-aspartate (130), MgCl2 (5.0), EGTA (5.0), K2ATP (4.0), HEPES (10.0), pH 7.2 with KOH. Resistance of the microelectrodes was in the range between 2 and 5 MΩ.
Membrane currents were recorded using an EPC-10 patch clamp amplifier and PatchMaster software. hERG-mediated membrane currents were recorded at 35° C., using the whole-cell configuration of the patch-clamp technique. Transfected HEK293 cells were clamped at a holding potential of −60 mV and hERG-mediated inactivating tail currents were elicited using a pulse pattern with fixed amplitudes (activation/inactivation: 40 mV for 2000 ms; recovery: −120 mV for 2 ms; ramp to 40 mV in 2 ms; inactivating tail current: 40 mV for 50 ms) repeated at 15 s intervals. During each inter-pulse interval 4 pulses scaled down by a factor of 0.2 were recorded for a P/n leak subtraction procedure. Rs compensation was employed up to a level that safely allowed recording devoid of ringing.
The different concentrations of the test compound were applied sequentially on each of the different cells investigated. A steady state level of baseline current was measured for at least 6 sweeps prior to the application of the first test compound concentration.
The test compound was dissolved in DMSO to yield a master stock solution which was diluted further in DMSO to stock solutions needed for the lower concentrations. Final dilutions in extracellular buffer were prepared freshly from these stocks by a 1:1000 dilution step each before starting the experiments.
Peak current amplitudes were measured 3 ms after the ramp to +40 mV. For baseline and each concentration the peak currents of the three last sweeps before application of the next concentration were averaged. Residual currents (I/I0) were calculated for each cell as the fraction of actual average peak current and average baseline peak current. Results are presented as percent (%) inhibition (1−I/I0)*100% at 10 μM.
On the technique in general: hERG is a cardiac potassium channel; its block is linked to QT prolongation.

hERG channel, sequence (Q12809 whole entry): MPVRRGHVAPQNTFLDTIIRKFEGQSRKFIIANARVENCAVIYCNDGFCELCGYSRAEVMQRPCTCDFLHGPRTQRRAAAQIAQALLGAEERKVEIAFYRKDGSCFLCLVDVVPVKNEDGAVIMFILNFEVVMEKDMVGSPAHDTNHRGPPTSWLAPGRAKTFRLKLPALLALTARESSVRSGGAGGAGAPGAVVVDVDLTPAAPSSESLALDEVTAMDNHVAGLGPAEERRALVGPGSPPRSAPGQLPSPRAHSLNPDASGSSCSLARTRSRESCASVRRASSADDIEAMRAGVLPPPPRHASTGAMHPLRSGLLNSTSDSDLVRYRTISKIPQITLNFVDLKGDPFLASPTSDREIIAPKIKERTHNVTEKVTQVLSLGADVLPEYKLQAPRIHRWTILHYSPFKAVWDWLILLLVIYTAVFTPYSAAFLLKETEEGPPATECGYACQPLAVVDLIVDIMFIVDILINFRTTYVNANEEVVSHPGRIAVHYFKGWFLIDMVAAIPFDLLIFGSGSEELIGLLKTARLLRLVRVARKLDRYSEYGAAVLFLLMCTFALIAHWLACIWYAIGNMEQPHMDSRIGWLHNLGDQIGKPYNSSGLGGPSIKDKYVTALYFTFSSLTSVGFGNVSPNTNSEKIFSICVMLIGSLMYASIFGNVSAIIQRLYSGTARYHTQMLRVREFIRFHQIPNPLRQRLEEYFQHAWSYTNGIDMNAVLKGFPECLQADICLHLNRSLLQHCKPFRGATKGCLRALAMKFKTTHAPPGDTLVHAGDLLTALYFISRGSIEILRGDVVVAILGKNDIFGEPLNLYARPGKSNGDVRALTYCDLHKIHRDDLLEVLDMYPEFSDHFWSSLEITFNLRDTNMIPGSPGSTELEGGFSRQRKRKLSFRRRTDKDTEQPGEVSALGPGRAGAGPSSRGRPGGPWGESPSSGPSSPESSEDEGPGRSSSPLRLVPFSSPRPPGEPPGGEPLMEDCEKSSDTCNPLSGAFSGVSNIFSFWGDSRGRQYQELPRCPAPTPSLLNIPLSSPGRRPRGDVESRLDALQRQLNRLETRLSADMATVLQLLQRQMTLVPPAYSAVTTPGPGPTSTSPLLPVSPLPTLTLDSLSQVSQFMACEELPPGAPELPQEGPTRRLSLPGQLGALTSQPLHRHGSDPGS

As for `CO[C@H]1[C@H](C)C[C@@]2(Cc3ccc(C#N)cc3[C@]23N=C(N)N(C[C@@H]2CCCO2)C3=O)C[C@@H]1C` [Example 15], the “hERG % inhibition @ 10 μM (assay 3)” value stood at 11%.

Take `CO[C@H]1[C@H](C)C[C@@]2(Cc3ccc(F)cc3[C@]23N=C(N)N(CC2(C)OCCO2)C3=O)C[C@@H]1C` [Example 29]: the “hERG % inhibition @ 10 μM (assay 3)” value is recorded as 7%.

As for `CC[C@@H]1C[C@]2(CC[C@H]1OC)Cc1ccc(C#N)cc1[C@]21N=C(N)N(CC2(F)CCOCC2)C1=O` [Example 4], the “hERG % inhibition @ 10 μM (assay 3)” value is given as 0%.

Consider `CO[C@H]1[C@H](C)C[C@@]2(Cc3ccc(C#N)cc3[C@]23N=C(N)N(C[C@H]2COCCO2)C3=O)C[C@@H]1C` [Example 22], for which the “hERG % inhibition @ 10 μM (assay 3)” value came out at 9%.

Take `CO[C@H]1[C@H](C)C[C@@]2(Cc3ccc(C#N)cc3[C@]23N=C(N)N(CC2COC2)C3=O)C[C@@H]1C` [Example 13]: the “hERG % inhibition @ 10 μM (assay 3)” value was 18%.

Turning to `CC[C@@H]1C[C@]2(CC[C@H]1OC)Cc1ccc(C#N)cc1[C@]21N=C(N)N(CC(C)(C)F)C1=O` [Example 3], the “hERG % inhibition @ 10 μM (assay 3)” value came out at 9%.

Regarding `CC[C@@H]1C[C@]2(CC[C@H]1OC)Cc1ccc(C#N)cc1[C@]21N=C(N)N(C[C@H]2COCCO2)C1=O` [Example 28], the “hERG % inhibition @ 10 μM (assay 3)” value is 9%.

On to `CO[C@H]1[C@H](C)C[C@@]2(Cc3ccc(C#N)cc3[C@]23N=C(N)N(CC2(C)COC2)C3=O)C[C@@H]1C` [Example 11], for which the “hERG % inhibition @ 10 μM (assay 3)” value stood at 6%.

Consider `CO[C@H]1[C@H](C)C[C@@]2(Cc3ccc(C#N)cc3[C@]23N=C(N)N(CC2(C)OCCO2)C3=O)C[C@@H]1C` [Example 20], for which the “hERG % inhibition @ 10 μM (assay 3)” value stood at 8%.

Regarding `CO[C@H]1CC[C@@]2(Cc3ccc(C#N)cc3[C@]23N=C(N)N(CC2COCCO2)C3=O)C[C@@H]1C` (stereo partly drawn) [Example 27], the “hERG % inhibition @ 10 μM (assay 3)” value was 19%.

Regarding `CO[C@H]1CC[C@@]2(Cc3ccc(C#N)cc3[C@]23N=C(N)N(Cc2ccncn2)C3=O)C[C@@H]1C` [Example 9], the “hERG % inhibition @ 10 μM (assay 3)” value is listed as 16%.

As for `CO[C@H]1CC[C@@]2(Cc3ccc(C#N)cc3[C@]23N=C(N)N(CC2(C)COC2)C3=O)C[C@@H]1C` [Example 8], the “hERG % inhibition @ 10 μM (assay 3)” value was determined as 16%.

With `CC[C@@H]1C[C@]2(CC[C@H]1OC)Cc1ccc(C#N)cc1[C@]21N=C(N)N(Cc2ncccn2)C1=O` [Example 1], the “hERG % inhibition @ 10 μM (assay 3)” value came to 8%.

In the case of `COCCN1C(=O)[C@]2(N=C1N)c1cc(C#N)ccc1C[C@@]21CC[C@H](OC)[C@@H](C)C1` [Example 7], the “hERG % inhibition @ 10 μM (assay 3)” value is 8%.

As to `CO[C@H]1[C@H](C)C[C@@]2(Cc3ccc(C#N)cc3[C@]23N=C(N)N(C2COC2)C3=O)C[C@@H]1C` [Example 12], the “hERG % inhibition @ 10 μM (assay 3)” value is listed as 11%.

For `CO[C@H]1[C@H](C)C[C@@]2(Cc3ccc(C#N)cc3[C@]23N=C(N)N(C[C@@H]2COCCO2)C3=O)C[C@@H]1C` [Example 21], the “hERG % inhibition @ 10 μM (assay 3)” value was found to be 24%.

Turning to `CO[C@H]1[C@H](C)C[C@@]2(Cc3ccc(C#N)cc3[C@]23N=C(N)N(CCC2COC2)C3=O)C[C@@H]1C` [Example 19], the “hERG % inhibition @ 10 μM (assay 3)” value stood at 8%.

As to `CC[C@H]1C[C@@]2(CC[C@@H]1OC)Cc1ccc(C#N)cc1[C@]21N=C(N)N(C[C@H]2CCCO2)C1=O` [Example 5], the “hERG % inhibition @ 10 μM (assay 3)” value amounted to 7%.

In the case of `CO[C@H]1[C@H](C)C[C@@]2(Cc3ccc(C#N)cc3[C@]23N=C(N)N(CC(C)(C)F)C3=O)C[C@@H]1C` [Example 17], the “hERG % inhibition @ 10 μM (assay 3)” value was 12%.

Regarding `COC1CCC2(CC1)Cc1ccc(C#N)cc1C21N=C(N)N(CC2CCCO2)C1=O` (stereo not drawn) [Comparison example drawing 13, reference compound], the “hERG % inhibition @ 10 μM (assay 3)” value is recorded as 16%.

In the case of `CO[C@H]1[C@H](C)C[C@@]2(Cc3ccc(F)cc3[C@]23N=C(N)N(C[C@@H]2CCOC2)C3=O)C[C@@H]1C` [Example 25], the “hERG % inhibition @ 10 μM (assay 3)” value is on record as 10%.

`CO[C@H]1[C@H](C)C[C@@]2(Cc3ccc(C#N)cc3[C@]23N=C(N)N(C[C@@H]2CCO2)C3=O)C[C@@H]1C` (stereo in doubt) [Example 18]: the “hERG % inhibition @ 10 μM (assay 3)” value worked out at 17%.

Turning to `CO[C@H]1[C@H](C)C[C@@]2(Cc3ccc(C#N)cc3[C@]23N=C(N)N(CC2(F)CCOCC2)C3=O)C[C@@H]1C` [Example 23], the “hERG % inhibition @ 10 μM (assay 3)” value came to 16%.

Consider `CO[C@H]1[C@H](C)C[C@@]2(Cc3ccc(C#N)cc3[C@]23N=C(N)N(Cc2ncc(F)cn2)C3=O)C[C@@H]1C` [Example 10], for which the “hERG % inhibition @ 10 μM (assay 3)” value is given as 38%.

As to `CC[C@@H]1C[C@@]2(Cc3ccc(C#N)cc3[C@]23N=C(N)N(CC(C)(C)F)C3=O)C[C@H](C)[C@H]1OC` [Example 26], the “hERG % inhibition @ 10 μM (assay 3)” value was found to be 8%.

With `CO[C@H]1[C@H](C)C[C@@]2(Cc3ccc(C#N)cc3[C@]23N=C(N)N(C[C@H]2CCCO2)C3=O)C[C@@H]1C` [Example 14], the “hERG % inhibition @ 10 μM (assay 3)” value was 20%.

With `CO[C@H]1CC[C@@]2(Cc3ccc(C#N)cc3[C@]23N=C(N)N(Cc2ncccn2)C3=O)C[C@@H]1C` [Example 6], the “hERG % inhibition @ 10 μM (assay 3)” value amounted to 35%.

Regarding `CC[C@@H]1C[C@]2(CC[C@H]1OC)Cc1ccc(C#N)cc1[C@]21N=C(N)N(CC2CCOCC2)C1=O` [Example 2], the “hERG % inhibition @ 10 μM (assay 3)” value is recorded as 22%.

Turning to `CO[C@H]1[C@H](C)C[C@@]2(Cc3ccc(C#N)cc3[C@]23N=C(N)N(Cc2ccncn2)C3=O)C[C@@H]1C` [Example 24], the “hERG % inhibition @ 10 μM (assay 3)” value is given as 23%.

As to `CO[C@H]1[C@H](C)C[C@@]2(Cc3ccc(C#N)cc3[C@]23N=C(N)N(CC2CCOCC2)C3=O)C[C@@H]1C` [Example 16], the “hERG % inhibition @ 10 μM (assay 3)” value was 6%.
